Structures are written as SMILES.

A short description of the assay: hydroxyl radical-scavenging assay. Type of assay: biochemical. Conditions: ED50 <20 μM considered active.
On to `CC(=O)c1ccc(O)cn1` [Compound 6, 5-hydroxy-2-pyridyl methyl ketone], for which the “hydroxyl radical scavenging ED50 (concentration scavenging hydroxyl radical by 50%)” value is over 20 µM. To `O=c1c(O)c(-c2ccc(O)c(O)c2)oc2cc(O)cc(O)c12` [quercetin, reference compound] belongs 1.3 µM. To `COC(=O)C(C)n1c(C=O)ccc1CO` (stereo not drawn) [Compound 1, methyl 2-[2-formyl-5-(hydroxymethyl)-1H-pyrrol-1-yl]propanoate] belongs 16.7 µM.

For the origin of these results see publication PMC4047925 (Journal of Agricultural and Food Chemistry, 2014).
